Data set [1] deals with T1, Free fatty acid receptor 1 (Homo sapiens, UniProt O14842). Briefly: Transactivation of human GPR40 expressed in HEK293 cells at 10 uM after 24 hrs by Elk-Gal4 luciferase reporter assay relative to TAK-875. The format is functional, cell-based.
Data set [2] addresses T1, Free fatty acid receptor 1. Kind of data set: Transactivation of human GPR40 expressed in HEK293 cells after 24 hrs by Elk-Gal4 luciferase reporter assay. In kind it is functional, cell-based. (In general: In a reporter assay the amount or activity of a reporter protein is the signal.)
For a further data set, the target named is CYP2C9 (Homo sapiens, UniProt P11712). Briefly: Inhibition of CYP2C9 in human liver microsomes at 5 uM using diclofenac sodium as substrate by LC-MS/MS analysis relative to control. Conditions: probe diclofenac sodium. In kind it is ADME. Background: Microsomes from liver hold many membrane-bound enzymes, among them those of drug oxidation.
Chain of CYP2C9 (P11712 whole entry): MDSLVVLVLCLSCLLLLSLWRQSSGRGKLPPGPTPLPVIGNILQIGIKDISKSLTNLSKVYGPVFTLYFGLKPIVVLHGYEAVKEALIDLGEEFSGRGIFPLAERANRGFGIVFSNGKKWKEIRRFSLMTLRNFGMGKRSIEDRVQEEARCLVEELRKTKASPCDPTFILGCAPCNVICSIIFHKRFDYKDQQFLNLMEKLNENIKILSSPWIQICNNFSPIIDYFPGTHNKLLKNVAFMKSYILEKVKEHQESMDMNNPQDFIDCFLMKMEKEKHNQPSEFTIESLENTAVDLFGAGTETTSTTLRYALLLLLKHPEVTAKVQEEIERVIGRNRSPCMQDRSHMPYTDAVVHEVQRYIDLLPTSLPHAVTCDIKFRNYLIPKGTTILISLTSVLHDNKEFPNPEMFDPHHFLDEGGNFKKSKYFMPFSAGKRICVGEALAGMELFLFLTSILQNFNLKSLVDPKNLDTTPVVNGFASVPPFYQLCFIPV
The test system of data set [3] is Mus musculus. Kind of data set: Antidiabetic activity in ICR mouse assessed as blood glucose levels at 50 mg/kg, po administered 1 hr prior to glucose challenge measured at 120 mins post glucose challenge (reference value: 53.7 +/- 9.9 mg/dl). The format is functional.
Data set [4] in a line: Induction of 16.8 mM glucose-stimulated insulin secretion in ICR mouse primary pancreatic islets assessed per protein at 10 uM after 1 hr by ELISA (reference value: 1.8 +/- 0.6 ng/ml). In kind it is functional, Pancreatic islet.
Data set [5] relates to Mus musculus. Kind of data set: Antidiabetic activity in ICR mouse assessed as blood glucose levels at 50 mg/kg, po administered 1 hr prior to glucose challenge measured at 30 mins post glucose challenge (reference value: 227.6 +/- 18.7 mg/dl). The format is functional.
For data set [6], the system named is Mus musculus. Kind of data set: Antidiabetic activity in ICR mouse assessed as blood glucose levels at 50 mg/kg, po administered 1 hr prior to glucose challenge measured at 60 mins post glucose challenge (reference value: 175.8 +/- 25 mg/dl). In kind it is functional.
Data set [7] has as its system Mus musculus. Kind of data set: Antidiabetic activity in ICR mouse assessed as reduction of blood glucose AUC at 50 mg/kg, po administered 1 hr prior to glucose challenge measured after 120 mins post glucose challenge relative to control. The format is functional. On the set-up: scale not given: the % may be the effect or the level left.
For data set [8], the target named is T2, CYP2D6 (Homo sapiens, UniProt P10635). Briefly: Inhibition of CYP2D6 in human liver microsomes at 5 uM using dextromethorphan as substrate by LC-MS/MS analysis relative to control. In kind it is ADME. Conditions: probe dextromethorphan.
T2 sequence (P10635 whole entry): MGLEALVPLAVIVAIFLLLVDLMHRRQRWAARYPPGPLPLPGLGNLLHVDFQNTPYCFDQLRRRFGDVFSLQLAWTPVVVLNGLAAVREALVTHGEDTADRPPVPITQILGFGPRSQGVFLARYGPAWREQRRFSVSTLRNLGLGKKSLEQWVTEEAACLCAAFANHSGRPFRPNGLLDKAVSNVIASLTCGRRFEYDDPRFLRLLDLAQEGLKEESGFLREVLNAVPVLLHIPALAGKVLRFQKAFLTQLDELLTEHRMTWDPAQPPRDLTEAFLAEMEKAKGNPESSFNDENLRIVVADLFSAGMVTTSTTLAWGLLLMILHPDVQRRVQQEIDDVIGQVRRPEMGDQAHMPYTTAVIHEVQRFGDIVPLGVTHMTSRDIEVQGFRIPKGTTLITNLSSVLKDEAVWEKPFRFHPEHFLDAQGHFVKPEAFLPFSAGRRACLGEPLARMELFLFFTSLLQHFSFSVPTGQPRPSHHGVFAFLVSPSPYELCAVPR
Data set [9] addresses T3, CYP1A2 (Homo sapiens, UniProt P05177).
T3 sequence (P05177 whole entry): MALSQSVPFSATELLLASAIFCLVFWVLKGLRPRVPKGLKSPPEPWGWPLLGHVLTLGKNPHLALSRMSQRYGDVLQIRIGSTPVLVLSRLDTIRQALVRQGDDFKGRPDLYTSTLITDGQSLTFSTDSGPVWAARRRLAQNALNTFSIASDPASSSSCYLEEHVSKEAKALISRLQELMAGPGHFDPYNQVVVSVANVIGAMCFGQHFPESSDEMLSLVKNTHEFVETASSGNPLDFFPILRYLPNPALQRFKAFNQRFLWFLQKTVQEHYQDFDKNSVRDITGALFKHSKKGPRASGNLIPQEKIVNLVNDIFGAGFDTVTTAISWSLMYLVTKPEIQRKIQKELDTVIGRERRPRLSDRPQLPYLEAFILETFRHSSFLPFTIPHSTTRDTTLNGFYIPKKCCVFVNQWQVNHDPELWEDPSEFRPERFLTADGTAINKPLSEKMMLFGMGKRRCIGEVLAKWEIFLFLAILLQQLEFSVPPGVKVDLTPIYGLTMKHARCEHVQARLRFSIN
Briefly: Inhibition of CYP1A2 in human liver microsomes at 5 uM using phenacetin as substrate by LC-MS/MS analysis relative to control. In kind it is ADME. Conditions: probe phenacetin.

A further data set has as its target CYP3A4 (Homo sapiens, UniProt P08684). Kind of data set: Inhibition of CYP3A4 in human liver microsomes at 5 uM using midazolam as substrate by LC-MS/MS analysis relative to control. The format is ADME. Conditions: probe midazolam.
Data set [10] concerns the target T2, CYP2D6. Briefly: Inhibition of CYP2D6 in human liver microsomes at 2 uM using dextromethorphan as substrate by LC-MS/MS analysis relative to control. Conditions: probe dextromethorphan.
The target in data set [11] is T3, CYP1A2. Briefly: Inhibition of CYP1A2 in human liver microsomes at 10 uM using phenacetin as substrate by LC-MS/MS analysis relative to control. The format is ADME. The conditions noted are these: probe phenacetin.
The test system of data set [12] is Mus musculus. Briefly: Antidiabetic activity in ICR mouse assessed as blood glucose AUC at 50 mg/kg, po administered 1 hr prior to glucose challenge measured after 120 mins post glucose challenge (reference value: 290 +/ 23.5 mg.hr/dl). In kind it is functional, organism-based. On the set-up: dose 50 mg/kg, time < 2 hr.

The source of these data is ChEMBL document CHEMBL4229516, “Design, synthesis and biological evaluation of a series of novel GPR40 agonists containing nitrogen heterocyclic rings” (Bioorg Med Chem Lett, 2018).

Structures are written as SMILES.

Chain of CYP3A4 (P08684 whole entry): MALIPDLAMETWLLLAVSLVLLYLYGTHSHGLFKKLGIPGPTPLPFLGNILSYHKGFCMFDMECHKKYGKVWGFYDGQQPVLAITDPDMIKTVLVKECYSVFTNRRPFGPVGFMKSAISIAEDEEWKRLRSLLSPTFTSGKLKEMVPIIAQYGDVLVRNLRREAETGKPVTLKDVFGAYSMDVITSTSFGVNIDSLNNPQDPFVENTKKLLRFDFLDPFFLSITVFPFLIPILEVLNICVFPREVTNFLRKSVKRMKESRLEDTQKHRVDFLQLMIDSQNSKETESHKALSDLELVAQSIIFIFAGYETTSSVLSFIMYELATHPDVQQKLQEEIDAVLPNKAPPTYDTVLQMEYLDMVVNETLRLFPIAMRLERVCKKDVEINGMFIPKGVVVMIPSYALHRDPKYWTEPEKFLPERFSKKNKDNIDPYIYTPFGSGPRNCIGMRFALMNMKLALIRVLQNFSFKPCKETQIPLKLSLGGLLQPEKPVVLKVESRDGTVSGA
T1 sequence (O14842 whole entry, the tested form may be a part): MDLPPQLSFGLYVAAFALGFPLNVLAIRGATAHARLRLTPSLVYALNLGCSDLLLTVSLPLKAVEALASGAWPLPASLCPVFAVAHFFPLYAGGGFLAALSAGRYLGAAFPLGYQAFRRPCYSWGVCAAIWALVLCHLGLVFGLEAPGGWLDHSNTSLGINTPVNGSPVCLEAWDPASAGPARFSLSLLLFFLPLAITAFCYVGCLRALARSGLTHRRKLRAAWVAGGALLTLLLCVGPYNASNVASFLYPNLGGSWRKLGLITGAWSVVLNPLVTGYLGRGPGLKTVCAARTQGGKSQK

For `CC(C)(CC(=O)O)c1ccc(OCc2cccc(-c3ccc4c(c3)CN(Cc3ccccc3)CC4)c2)cc1`, in [1], the Activity worked out at 22.8%.
In [1], `O=C(O)C[C@@H]1COc2cc(OCc3cccc(-c4cccc5c4CCN(CCc4ccccc4)C5)c3)ccc21` gave an Activity of 54.8%.
In [1], `O=C(O)C[C@@H]1COc2cc(OCc3cccc(-c4cccc5c4CCN(C(=O)c4ccccc4)C5)c3)ccc21` had an Activity of 84.2%. The EC50 in [2] came out at 2200 nM.
`CC(=O)N1CCc2cc(-c3cccc(COc4ccc5c(c4)OC[C@H]5CC(=O)O)c3)ccc2C1`: the Activity in data set [1] worked out at 5%.
As to `O=C(O)COc1ccc(OCc2cccc(-c3cccc4c3CCN(Cc3ccccc3)C4)c2)cc1`, the Activity in [1] came out at 28.8%.
Same read-out and setting: then `CC(=O)N1CCc2c(cccc2-c2cccc(COc3ccc4c(c3)OC[C@H]4CC(=O)O)c2)C1`, with 43.6%.
On the same count and under the same terms, in the case of `CC(C)(CC(=O)O)c1ccc(OCc2cccc(-c3ccc4c(c3)CCN(Cc3ccccc3)C4)c2)cc1` it was 58.6%; in that of `O=C(O)COc1ccc(OCc2cccc(-c3ccc4c(c3)CCN(Cc3ccccc3)C4)c2)cc1`, 17.8%; in that of `O=C(O)C[C@@H]1COc2cc(OCc3cccc(-c4ccc5c(c4)CCN(C(=O)Cc4ccccc4)C5)c3)ccc21`, 31.6%.
`Cl.O=C(O)C[C@@H]1COc2cc(OCc3cccc(-c4ccc5c(c4)CCN(Cc4ccccc4)C5)c3)ccc21`: the inhibition at 5 µM on CYP2C9 is 16.2%; at CYP2D6 [8], 23.6%; against CYP1A2 [9], 20.9%; on CYP3A4, 30.7%. In addition, the Activity in data set [1] was found to be 136%; with Mus musculus [3], 49.9 mg/dL; in data set [4] it was 2.9 ng/mL; in the data set with Mus musculus [5], 196.2 mg/dL; in the data set on Mus musculus [6], 150.2 mg/dL; with Mus musculus [7], 13.8%. In data set [2], the EC50 is 1200 nM.
For the compound `C=C[C@H]1C[N@@]2CC[C@H]1C[C@@H]2[C@@H](O)c1ccnc2ccc(OC)cc12` [QUINIDINE], the inhibition at 2 µM on CYP2D6 [10] is 93.3%.
As for `Cc1nc2c([nH]1)c(=O)n(C)c(=O)n2Cc1ccco1` [FURAFYLLINE], the inhibition at 10 µM against CYP1A2 [11] was 71.4%.
As to `Cc1cc(OCCCS(C)(=O)=O)cc(C)c1-c1cccc(COc2ccc3c(c2)OC[C@H]3CC(=O)O)c1`, the inhibition at 5 µM against CYP2C9 was found to be 21%; against CYP2D6 [8] it was 23.2%; against CYP1A2 [9], 28%; at CYP3A4 it was 34%. Also, the Activity was 49 mg/dL with Mus musculus [3], 2.1 ng/mL in data set [4], 155.2 mg/dL in the data set with Mus musculus [5] and 120 mg/dL in the data set with Mus musculus [6]. Besides, the AUC with Mus musculus [12] worked out at 2.07e+06 ng·h/mL.
`CC(C)(CC(=O)O)c1ccc(OCc2cccc(-c3cccc4c3CCN(Cc3ccccc3)C4)c2)cc1` displayed an Activity in data set [1] of 90%. For the same compound, the EC50 in [2] was determined as 800 nM.
Taken in the same sequence, the figures for `O=C(O)C[C@@H]1COc2cc(OCc3cccc(-c4ccc5c(c4)CCN(CCc4ccccc4)C5)c3)ccc21` were 85% and 4000 nM.
In turn, `O=C(O)C[C@@H]1COc2cc(OCc3cccc(-c4ccc5c(c4)CCN(C(=O)c4ccccc4)C5)c3)ccc21` displayed an Activity in [1] of 39.8%.
As to `O=C(O)C[C@@H]1COc2cc(OCc3cccc(-c4ccc5c(c4)CN(Cc4ccccc4)C5)c3)ccc21`, in data set [1], the Activity was 89.8%. The compound further gave an EC50 in data set [2] of 3000 nM.
For the compound `O=C(O)C[C@@H]1COc2cc(OCc3cccc(-c4ccc5c(c4)CN(C(=O)Cc4ccccc4)CC5)c3)ccc21`, the Activity in [1] is 20.4%.
Still for that read-out and setting: then `O=C(O)C[C@@H]1COc2cc(OCc3cccc(-c4ccc5c(c4)CN(CCc4ccccc4)C5)c3)ccc21`, with 77%.
Take `Cl.O=C(O)C[C@@H]1COc2cc(OCc3cccc(-c4ccc5c(c4)CN(Cc4ccccc4)CC5)c3)ccc21`: the inhibition at 5 µM against CYP2C9 turned out to be 3.94%; at CYP2D6 [8], 39.5%; against CYP1A2 [9], 25.7%; against CYP3A4, 27.6%. The Activity in [1] came out at 108%; with Mus musculus [3] it was 58 mg/dL; in [4], 2.8 ng/mL; with Mus musculus [5], 214.1 mg/dL; in the data set with Mus musculus [6], 172.7 mg/dL. Besides, in data set [2], the EC50 was determined as 800 nM. Besides, in the data set with Mus musculus [12], the AUC came to 2.81e+06 ng·h/mL.
`CCN1CCc2c(cccc2-c2cccc(COc3ccc4c(c3)OC[C@H]4CC(=O)O)c2)C1` returned an Activity in [1] of 7.8%.
The compound `O=C(O)C[C@@H]1COc2cc(OCc3cccc(-c4ccc5c(c4)CN(C(=O)c4ccccc4)C5)c3)ccc21` yielded an Activity in data set [1] of 60.8%.
The same measure, in the same setting: then `O=C(O)C[C@@H]1COc2cc(OCc3cccc(-c4ccc5c(c4)CN(C(=O)Cc4ccccc4)C5)c3)ccc21`, with 34.8%; and `O=C(O)COc1ccc(OCc2cccc(-c3ccc4c(c3)CN(Cc3ccccc3)C4)c2)cc1`, with 18.9%.
`O=C(O)C[C@@H]1COc2cc(OCc3cccc(-c4cccc5c4CCN(Cc4ccccc4)C5)c3)ccc21`: the Activity in data set [1] came out at 89.4%. In addition, the concentration for a half-maximal effect (EC50) in [2] was 5400 nM.
In data set [1], `CC(C)(CC(=O)O)c1ccc(OCc2cccc(-c3ccc4c(c3)CN(Cc3ccccc3)C4)c2)cc1` displayed an Activity of 23.8%.
`O=C(O)C[C@@H]1COc2cc(OCc3cccc(-c4ccc5c(c4)CN(C(=O)c4ccccc4)CC5)c3)ccc21`: the Activity in data set [2] came to 46%.
In data set [1], `CC(=O)N1Cc2ccc(-c3cccc(COc4ccc5c(c4)OC[C@H]5CC(=O)O)c3)cc2C1` had an Activity of 36.8%.
Take `O=C(O)COc1ccc(OCc2cccc(-c3ccc4c(c3)CN(Cc3ccccc3)CC4)c2)cc1`: the Activity in [1] was 4.6%.
On to `Nc1ccc(S(=O)(=O)Nc2ccnn2-c2ccccc2)cc1` [SULFAPHENAZOLE], for which, at CYP2C9, the inhibition at 5 µM is 94.9%.

In general, EC50 refers to the concentration giving half of the maximal effect. For orientation: inhibition means how much of the control response was suppressed.
